Legend:
[1] = test system: fatty liver induced by ethionine; test: effect on fatty liver, ethionine model; assay type: in vivo, mouse (dd-strain); conditions: 250 mg/kg oral
Description: There are known many factors inducing fatty liver. But, the fatty liver is grouped into a couple of patterns from the mechanism of lipid accumulation or metabolism of lipoprotein in the liver. Ethionine is a typical example which induces first pattern of fatty liver. It inhibits RNA and protein synthesis and destroys polysome of the liver cell. Fatty liver is induced by inhibition of the protein synthesis and disturbance of lipoprotein secretion.
Usually, fatty liver is closely related to the accumulation of triglyceride in the liver. In the present example, the degree of fatty liver and protective or therapeutic effect on the fatty liver was evaluated by measurement of triglyceride content in the liver.
The compounds of this invention and methionine were independently dissolved or suspended into olive oil and administered orally to the male mouse (4 week-old dd-strain) at the dose of 250 mg/kg. One hour before it, simultaneously with it or one hour after it, ethionine dissolved in equimolar NaOH solution was administered intraperitoneally at the dose of 200 mg/kg. Twenty four hours after the administration of ethionine, the animals were sacrificed and triglyceride content in the liver was determined by chromotropic acid method.

[2] = test system: liver injury and chronic hepatitis; test: clinical test on liver injury and chronic hepatitis; assay type: in vivo, human; conditions: for p-GOT activity / p-GPT activity: tablets of Example 6, 12 a day
Method: Six patients were used for the test. One was diagnosed as liver injury caused by administration of PAS (p-aminosalicyclic acid) for three months and five were diagnosed as chronic hepatitis by doctor.
The tablets obtained in Example 6 were orally administered to the respective patients at the dose of twelve tablets a day (four tablets after every meal).
Curing effects on the liver injury and chronic hepatitis after administration were evaluated by measuring plasma transaminase activity (p-GPT and p-GOT).

[3] = patient 1, liver injury (PAS), person, before administration
[4] = patient 2, chronic hepatitis, before administration
[5] = patient 3, chronic hepatitis, before administration
[6] = patient 4, chronic hepatitis, before administration
[7] = patient 5, chronic hepatitis, before administration
[8] = patient 6, chronic hepatitis, before administration

CC(C)OC(=O)C(C(=O)OC(C)C)=C1SC=CS1 [Compound 4, diisopropyl 1,3-dithiol-2-ylidene malonate]
Triglyceride ([1]; 1 hr after ethionine 200 mg/kg i.p.): 10.0 ± 1.15 mg/g-liver
Triglyceride ([1]; 1 hr before ethionine 200 mg/kg i.p.): 9.1 ± 1.15 mg/g-liver
Triglyceride ([1]; simultaneously with (0 hr) ethionine 200 mg/kg i.p.): 5.4 ± 0.61 mg/g-liver
plasma transaminase activity (p-GPT and p-GOT) ([2]; in words): useful for normalizing plasma transaminase activity
p-GOT activity ([2]; patient 1, after 3 days): 270 Karmen Unit
p-GPT activity ([2]; patient 1, after 3 days): 215 Karmen Unit
p-GOT activity ([2]; patient 1, after 4 days): 231 Karmen Unit
p-GPT activity ([2]; patient 1, after 4 days): 169 Karmen Unit
p-GOT activity ([2]; patient 1, after 7 days): 81 Karmen Unit
p-GPT activity ([2]; patient 1, after 7 days): 94 Karmen Unit
p-GOT activity ([2]; patient 1, after 12 days): 36 Karmen Unit
p-GPT activity ([2]; patient 1, after 12 days): 41 Karmen Unit
p-GOT activity ([2]; patient 1, after 15 days): 37 Karmen Unit
p-GPT activity ([2]; patient 1, after 15 days): 24 Karmen Unit
p-GOT activity ([2]; patient 1, after 19 days): 24 Karmen Unit
p-GPT activity ([2]; patient 1, after 19 days): 21 Karmen Unit
p-GOT activity [2, 3]: 270 Karmen Unit
p-GPT activity [2, 3]: 270 Karmen Unit
p-GOT activity ([2]; patient 2, after 14 days): 68 Karmen Unit
p-GPT activity ([2]; patient 2, after 14 days): 62 Karmen Unit
p-GOT activity ([2]; patient 2, after 35 days): 24 Karmen Unit
p-GPT activity ([2]; patient 2, after 35 days): 43 Karmen Unit
p-GOT activity [2, 4]: 270 Karmen Unit
p-GPT activity [2, 4]: 270 Karmen Unit
p-GOT activity ([2]; patient 3, after 14 days): 100 Karmen Unit
p-GPT activity ([2]; patient 3, after 14 days): 96 Karmen Unit
p-GOT activity ([2]; patient 3, after 56 days): 77 Karmen Unit
p-GPT activity ([2]; patient 3, after 56 days): 87 Karmen Unit
p-GOT activity [2, 5]: 145 Karmen Unit
p-GPT activity [2, 5]: 163 Karmen Unit
p-GOT activity ([2]; patient 4, after 2 days): 60 Karmen Unit
p-GPT activity ([2]; patient 4, after 2 days): 113 Karmen Unit
p-GOT activity ([2]; patient 4, after 9 days): 68 Karmen Unit
p-GPT activity ([2]; patient 4, after 9 days): 94 Karmen Unit
p-GOT activity ([2]; patient 4, after 16 days): 49 Karmen Unit
p-GPT activity ([2]; patient 4, after 16 days): 62 Karmen Unit
p-GOT activity ([2]; patient 4, after 62 days): 33 Karmen Unit
p-GPT activity ([2]; patient 4, after 62 days): 33 Karmen Unit
p-GOT activity [2, 6]: 80 Karmen Unit
p-GPT activity [2, 6]: 185 Karmen Unit
p-GOT activity ([2]; patient 5, after 8 days): 78 Karmen Unit
p-GPT activity ([2]; patient 5, after 8 days): 119 Karmen Unit
p-GOT activity ([2]; patient 5, after 28 days): 65 Karmen Unit
p-GPT activity ([2]; patient 5, after 28 days): 79 Karmen Unit
p-GOT activity ([2]; patient 5, after 30 days): 57 Karmen Unit
p-GPT activity ([2]; patient 5, after 30 days): 57 Karmen Unit
p-GOT activity [2, 7]: 95 Karmen Unit
p-GPT activity [2, 7]: 94 Karmen Unit
p-GOT activity ([2]; patient 6, after 14 days): 108 Karmen Unit
p-GPT activity ([2]; patient 6, after 14 days): 306 Karmen Unit
p-GOT activity ([2]; patient 6, after 23 days): 48 Karmen Unit
p-GPT activity ([2]; patient 6, after 23 days): 121 Karmen Unit
p-GOT activity ([2]; patient 6, after 36 days): 33 Karmen Unit
p-GPT activity ([2]; patient 6, after 36 days): 65 Karmen Unit
p-GOT activity ([2]; patient 6, after 56 days): 24 Karmen Unit
p-GPT activity ([2]; patient 6, after 56 days): 53 Karmen Unit
p-GOT activity ([2]; patient 6, after 82 days): 24 Karmen Unit
p-GPT activity ([2]; patient 6, after 82 days): 39 Karmen Unit
p-GOT activity [2, 8]: 83 Karmen Unit
p-GPT activity [2, 8]: 354 Karmen Unit

From patent US4118506A, “Pharmaceutical compositions containing 1,3-dithiol-2-ylidene malonate derivatives” (Nihon Nohyaku Co., Ltd., priority 1976, dated 1978)
